In patent US12215112B2, “CD151 inhibitors” (ESFAM BIOTECH PTY LTD, priority 2020, dated 2025) one finds IC50 data, which are given here for 27 compounds.

SMILES strings stand for the structures.

The subject of this test is PC3 cells. Description: xCELLigence RTCA real-time cell invasion assay (CIM plate, Matrigel) on PC3 prostate cancer cells. Type of test: cell-based. The note with it: Homo sapiens, PC-3, compound 25 uM to 1 uM, cell index monitored for 72 hours, four-parameter dose-response curve, read-out: IC50, Effect of compounds on the invention on prostate cancer cells. In outline:
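PC3 invasion through 5% Matrigel-coated CIM-plate upper chambers was tracked as impedance cell index over 72 h. Compound at 25–1 µM was present in both chambers, with 3×10^4 cells seeded in serum-free RPMI. IC50 came from a four-parameter fit, and IC90 was derived from IC50 and the Hill slope.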
The term IC50 denotes the concentration that inhibits the measured activity by half. For `CC(=O)N1CCN(c2cccc(NC(=O)c3nn4c(-c5cn[nH]c5)cc(N5Cc6ccc(F)cc6C5)nc4c3C(C)C)c2)CC1` [Compound 79, N-(3-(4-acetylpiperazin-1-yl)phenyl)-5-(5-fluoroisoindolin-2-yl)-3-isopropyl-7-(1H-pyrazol-4-yl)pyrazolo[1,5-a]pyrimidine-2-carboxamide], the IC50 was 4050 nM. As to `CC(=O)N1CCN(c2ccc(NC(=O)c3nn4c(-c5cn[nH]c5)cc(N5Cc6ccc(F)cc6C5)nc4c3C(C)C)cc2)CC1` [Compound 80, N-(4-(4-acetylpiperazin-1-yl)phenyl)-5-(5-fluoroisoindolin-2-yl)-3-isopropyl-7-(1H-pyrazol-4-yl)pyrazolo[1,5-a]pyrimidine-2-carboxamide], the IC50 stood at 1000 nM. The same measure for `COc1cccc(NC(=O)c2nn3c(-c4cn[nH]c4)cc(N4Cc5ccc(Cl)cc5C4)nc3c2C(C)C)c1` [Compound 81, 5-(5-chloroisoindolin-2-yl)-3-isopropyl-N-(3-methoxyphenyl)-7-(1H-pyrazol-4-yl)pyrazolo[1,5-a]pyrimidine-2-carboxamide]: 2450 nM. The same measure for `CC(=O)Nc1cccc(NC(=O)c2nn3c(-c4cn[nH]c4)cc(N4Cc5ccc(Cl)cc5C4)nc3c2C(C)C)c1` [Compound 82, N-(3-acetamidophenyl)-5-(5-chloroisoindolin-2-yl)-3-isopropyl-7-(1H-pyrazol-4-yl)pyrazolo[1,5-a]pyrimidine-2-carboxamide]: 2920 nM; for `CC(=O)N1CCN(c2cccc(NC(=O)c3nn4c(-c5cn[nH]c5)cc(N5Cc6ccc(Cl)cc6C5)nc4c3C(C)C)c2)CC1` [Compound 83, N-(3-(4-acetylpiperazin-1-yl)phenyl)-5-(5-chloroisoindolin-2-yl)-3-isopropyl-7-(1H-pyrazol-4-yl)pyrazolo[1,5-a]pyrimidine-2-carboxamide]: 10100 nM; for `CC(=O)N1CCN(c2ccc(NC(=O)c3nn4c(-c5cn[nH]c5)cc(N5Cc6ccc(Cl)cc6C5)nc4c3C(C)C)cc2)CC1` [Compound 84, N-(4-(4-acetylpiperazin-1-yl)phenyl)-5-(5-chloroisoindolin-2-yl)-3-isopropyl-7-(1H-pyrazol-4-yl)pyrazolo[1,5-a]pyrimidine-2-carboxamide]: 1100 nM. The same measure for `COc1cccc(NC(=O)c2nn3c(-c4cn[nH]c4)cc(N4Cc5ccc(Cl)cc5C4)nc3c2C(C)(C)C)c1` [Compound 89, 3-(tert-butyl)-5-(5-chloroisoindolin-2-yl)-N-(3-methoxyphenyl)-7-(1H-pyrazol-4-yl)pyrazolo[1,5-a]pyrimidine-2-carboxamide]: 3110 nM; for `O=C(Nc1cccc(O)c1)c1nn2c(-c3cn[nH]c3)cc(N3Cc4ccccc4C3)nc2c1C1CC1` [Compound 94, 3-cyclopropyl-N-(3-hydroxyphenyl)-5-(isoindolin-2-yl)-7-(1H-pyrazol-4-yl)pyrazolo[1,5-a]pyrimidine-2-carboxamide]: 6210 nM. Take `CC(=O)N1CCN(c2cccc(NC(=O)c3nn4c(-c5cn[nH]c5)cc(N5Cc6ccccc6C5)nc4c3C3CC3)c2)CC1` [Compound 95, N-(3-(4-acetylpiperazin-1-yl)phenyl)-3-cyclopropyl-5-(isoindolin-2-yl)-7-(1H-pyrazol-4-yl)pyrazolo[1,5-a]pyrimidine-2-carboxamide]: the IC50 turned out to be 2120 nM. Next, `COc1ccc(NC(=O)c2nn3c(-c4cn[nH]c4)cc(N4Cc5ccccc5C4)nc3c2C2CC2)cc1` [Compound 96, 3-cyclopropyl-5-(isoindolin-2-yl)-N-(4-methoxyphenyl)-7-(1H-pyrazol-4-yl)pyrazolo[1,5-a]pyrimidine-2-carboxamide]: 6470 nM; `CC(=O)Nc1cccc(NC(=O)c2nn3c(-c4cn[nH]c4)cc(N4Cc5ccccc5C4)nc3c2C2CC2)c1` [Compound 97, N-(3-acetamidophenyl)-3-cyclopropyl-5-(isoindolin-2-yl)-7-(1H-pyrazol-4-yl)pyrazolo[1,5-a]pyrimidine-2-carboxamide]: 1080 nM; `O=C(Nc1cccc(Cl)c1)c1nn2c(-c3cn[nH]c3)cc(N3Cc4ccccc4C3)nc2c1C1CC1` [Compound 98, N-(3-chlorophenyl)-3-cyclopropyl-5-(isoindolin-2-yl)-7-(1H-pyrazol-4-yl)pyrazolo[1,5-a]pyrimidine-2-carboxamide]: 12500 nM.

In the case of `CC(C)c1c(C(=O)Nc2cccc(O)c2)nn2c(-c3cn[nH]c3)cc(N3Cc4ccc(F)cc4C3)nc12` [Compound 99, 5-(5-fluoroisoindolin-2-yl)-N-(3-hydroxyphenyl)-3-isopropyl-7-(1H-pyrazol-4-yl)pyrazolo[1,5-a]pyrimidine-2-carboxamide], the IC50 stood at 1230 nM. Next, `CC(C)c1c(C(=O)Nc2cccc(O)c2)nn2c(-c3cn[nH]c3)cc(N3Cc4ccc(Cl)cc4C3)nc12` [Compound 100, 5-(5-chloroisoindolin-2-yl)-N-(3-hydroxyphenyl)-3-isopropyl-7-(1H-pyrazol-4-yl)pyrazolo[1,5-a]pyrimidine-2-carboxamide]: 2230 nM. Next, `CC(C)c1c(C(=O)Nc2cccc(N3CCOCC3)c2)nn2c(-c3cn[nH]c3)cc(N3Cc4ccc(F)cc4C3)nc12` [Compound 101, 5-(5-fluoroisoindolin-2-yl)-3-isopropyl-N-(3-morpholinophenyl)-7-(1H-pyrazol-4-yl)pyrazolo[1,5-a]pyrimidine-2-carboxamide]: 3990 nM. With `COCCOc1ccc(NC(=O)c2nn3c(-c4cn[nH]c4)cc(N4Cc5ccc(F)cc5C4)nc3c2C(C)C)cc1` [Compound 102, 5-(5-fluoroisoindolin-2-yl)-3-isopropyl-N-(4-(2-methoxyethoxy)phenyl)-7-(1H-pyrazol-4-yl)pyrazolo[1,5-a]pyrimidine-2-carboxamide], the IC50 is 1270 nM.

Turning to `CC(C)c1c(C(=O)Nc2ccc3cn[nH]c3c2)nn2c(-c3cn[nH]c3)cc(N3Cc4ccc(F)cc4C3)nc12` [Compound 104, 5-(5-fluoroisoindolin-2-yl)-N-(1H-indazol-6-yl)-3-isopropyl-7-(1H-pyrazol-4-yl)pyrazolo[1,5-a]pyrimidine-2-carboxamide], the IC50 is 2890 nM. Next, `CC(C)c1c(C(=O)Nc2ccc(N3CCOCC3)cc2)nn2c(-c3cn[nH]c3)cc(N3Cc4ccc(F)cc4C3)nc12` [Compound 106, 5-(5-fluoroisoindolin-2-yl)-3-isopropyl-N-(4-morpholinophenyl)-7-(1H-pyrazol-4-yl)pyrazolo[1,5-a]pyrimidine-2-carboxamide]: 2020 nM; `CC(C)c1c(C(=O)Nc2ccc(N3CCOCC3)cc2)nn2c(-c3cn[nH]c3)cc(N3Cc4ccc(Cl)cc4C3)nc12` [Compound 107, 5-(5-chloroisoindolin-2-yl)-3-isopropyl-N-(4-morpholinophenyl)-7-(1H-pyrazol-4-yl)pyrazolo[1,5-a]pyrimidine-2-carboxamide]: 2360 nM.

With `CC(C)c1c(C(=O)Nc2cccc(N3CCOCC3)c2)nn2c(-c3cn[nH]c3)cc(N3Cc4ccc(Cl)cc4C3)nc12` [Compound 108, 5-(5-chloroisoindolin-2-yl)-3-isopropyl-N-(3-morpholinophenyl)-7-(1H-pyrazol-4-yl)pyrazolo[1,5-a]pyrimidine-2-carboxamide], the 50% inhibitory concentration (IC50) worked out at 18700 nM.

As to `COCCOc1ccc(NC(=O)c2nn3c(-c4cn[nH]c4)cc(N4Cc5ccc(Cl)cc5C4)nc3c2C(C)C)cc1` [Compound 109, 5-(5-chloroisoindolin-2-yl)-3-isopropyl-N-(4-(2-methoxyethoxy)phenyl)-7-(1H-pyrazol-4-yl)pyrazolo[1,5-a]pyrimidine-2-carboxamide], the IC50 came out at 3230 nM.

On to `CC(C)c1c(C(=O)Nc2ccc(OC3CCOCC3)cc2)nn2c(-c3cn[nH]c3)cc(N3Cc4ccc(Cl)cc4C3)nc12` [Compound 119, 5-(5-chloroisoindolin-2-yl)-3-isopropyl-7-(1H-pyrazol-4-yl)-N-(4-((tetrahydro-2H-pyran-4-yl)oxy)phenyl)pyrazolo[1,5-a]pyrimidine-2-carboxamide], for which the IC50 worked out at 3150 nM. With `COc1ccc(F)c(NC(=O)c2nn3c(-c4cn[nH]c4)cc(N4Cc5ccc(Cl)cc5C4)nc3c2C(C)C)c1` [Compound 120, 5-(5-chloroisoindolin-2-yl)-N-(2-fluoro-5-methoxyphenyl)-3-isopropyl-7-(1H-pyrazol-4-yl)pyrazolo[1,5-a]pyrimidine-2-carboxamide], the IC50 worked out at 4940 nM.

For `CC(C)c1c(C(=O)Nc2cccc(OC3CCOCC3)c2)nn2c(-c3cn[nH]c3)cc(N3Cc4ccc(F)cc4C3)nc12` [Compound 121, 5-(5-fluoroisoindolin-2-yl)-3-isopropyl-7-(1H-pyrazol-4-yl)-N-(3-((tetrahydro-2H-pyran-4-yl)oxy)phenyl)pyrazolo[1,5-a]pyrimidine-2-carboxamide], the IC50 was found to be 2750 nM. Consider `COc1cccc(NC(=O)c2nn3c(-c4cn[nH]c4)cc(N4Cc5ccc(F)cc5C4)nc3c2C(C)C)c1F` [Compound 122, N-(2-fluoro-3-methoxyphenyl)-5-(5-fluoroisoindolin-2-yl)-3-isopropyl-7-(1H-pyrazol-4-yl)pyrazolo[1,5-a]pyrimidine-2-carboxamide], for which the concentration for half-maximal inhibition (IC50) turned out to be 9070 nM.

On to `CC(C)c1c(C(=O)Nc2ccc(OC3CCOCC3)cc2)nn2c(-c3cn[nH]c3)cc(N3Cc4ccc(F)cc4C3)nc12` [Compound 123, 5-(5-fluoroisoindolin-2-yl)-3-isopropyl-7-(1H-pyrazol-4-yl)-N-(4-((tetrahydro-2H-pyran-4-yl)oxy)phenyl)pyrazolo[1,5-a]pyrimidine-2-carboxamide], for which the IC50 was found to be 1020 nM. The same measure for `COc1ccc(F)c(NC(=O)c2nn3c(-c4cn[nH]c4)cc(N4Cc5ccc(F)cc5C4)nc3c2C(C)C)c1` [Compound 124, N-(2-fluoro-5-methoxyphenyl)-5-(5-fluoroisoindolin-2-yl)-3-isopropyl-7-(1H-pyrazol-4-yl)pyrazolo[1,5-a]pyrimidine-2-carboxamide]: 1150 nM.
